# Results from ChEMBL document CHEMBL1201862, “PubChem BioAssay data set” (2004).
#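 Protocol summary: plate cells (96-well), add compound at 5 concentrations, incubate 48 h, interpolate endpoints linearly. GI50 is the concentration that inhibits growth by half.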 The source made the active and inactive calls. Rule as the data show it: active = GI50 up to about 1.1 µM and inactive = higher.
# Key:
# Assay in all cases: DTP human tumour cell line panel, 48 h
# EKVX = system: EKVX
# Malme-3M = system: Malme-3M
# NCI-H23 = system: NCI-H23
# HOP-62 = system: HOP-62
# SF-295 = system: SF-295
# 786-0 = system: 786-0
# SW-620 = system: SW-620
# HCT-15 = system: HCT-15
# BT-549 = system: BT-549
# SN12C = system: SN12C
# HT-29 = system: HT-29
# K562 = system: K562
# OVCAR-4 = system: OVCAR-4
# T47D = system: T47D
# A549 = system: A549
# NCI-H460 = system: NCI-H460
# UO-31 = system: UO-31
# SK-MEL-5 = system: SK-MEL-5
# MDA-MB-231 = system: MDA-MB-231
# SK-OV-3 = system: SK-OV-3
Structure (SMILES),GI50 (EKVX),GI50 (Malme-3M),GI50 (NCI-H23),GI50 (HOP-62),GI50 (SF-295),GI50 (786-0),GI50 (SW-620),GI50 (HCT-15) [µM],GI50 (BT-549),GI50 (SN12C),GI50 (HT-29),GI50 (K562),GI50 (OVCAR-4),GI50 (T47D),GI50 (A549),GI50 (NCI-H460),GI50 (UO-31),GI50 (SK-MEL-5),GI50 (MDA-MB-231),GI50 (SK-OV-3)
N=C(CC/C(N)=N/O)NO,> 100 µM (inactive),> 100 µM (inactive),> 100 µM (inactive),> 100 µM (inactive),> 100 µM (inactive),> 100 µM (inactive),> 100 µM (inactive),> 100,> 100 µM (inactive),> 100 µM (inactive),> 100 µM (inactive),> 100 µM (inactive),> 100 µM (inactive),> 100 µM (inactive),> 100 µM (inactive),> 100 µM (inactive),> 100 µM (inactive),> 100 µM (inactive),> 100 µM (inactive),
COc1ccc(NC(S)=Nc2cccc(C)n2)cc1,> 100 µM (inactive),,84.5 µM (inactive),25.6 µM (inactive),33.3 µM (inactive),54 µM (inactive),> 100 µM (inactive),78.2,> 100 µM (inactive),,> 100 µM (inactive),75.3 µM (inactive),> 100 µM (inactive),> 100 µM (inactive),,> 100 µM (inactive),> 100 µM (inactive),> 100 µM (inactive),> 100 µM (inactive),> 100 µM (inactive)
NC(=O)c1sc2nc3ccccc3n2c1N,67.5 µM (inactive),> 100 µM (inactive),17.4 µM (inactive),32.8 µM (inactive),23.8 µM (inactive),40 µM (inactive),> 100 µM (inactive),> 100,14.4 µM (inactive),,> 100 µM (inactive),,> 100 µM (inactive),> 100 µM (inactive),> 100 µM (inactive),,> 100 µM (inactive),> 100 µM (inactive),24.9 µM (inactive),27.2 µM (inactive)
CN(C)/C=N\c1cccc2cnccc12,> 100 µM (inactive),> 100 µM (inactive),> 100 µM (inactive),> 100 µM (inactive),> 100 µM (inactive),> 100 µM (inactive),,> 100,> 100 µM (inactive),> 100 µM (inactive),> 100 µM (inactive),> 100 µM (inactive),> 100 µM (inactive),> 100 µM (inactive),> 100 µM (inactive),,> 100 µM (inactive),> 100 µM (inactive),> 100 µM (inactive),> 100 µM (inactive)
CC(=O)OC1(C)C(=O)OC/C2=C/CN(C)CCC(OC(=O)C(O)(C(C)Cl)CC1C)C2=O.c1ccccc1 (stereo not given),> 100 µM (inactive),,> 100 µM (inactive),> 100 µM (inactive),> 100 µM (inactive),> 100 µM (inactive),> 100 µM (inactive),> 100,> 100 µM (inactive),> 100 µM (inactive),> 100 µM (inactive),> 100 µM (inactive),> 100 µM (inactive),> 100 µM (inactive),> 100 µM (inactive),> 100 µM (inactive),> 100 µM (inactive),> 100 µM (inactive),> 100 µM (inactive),> 100 µM (inactive)
CSc1[nH]cnc1C(N)=S,> 100 µM (inactive),> 100 µM (inactive),> 100 µM (inactive),> 100 µM (inactive),> 100 µM (inactive),> 100 µM (inactive),> 100 µM (inactive),,> 100 µM (inactive),,> 100 µM (inactive),,,> 100 µM (inactive),> 100 µM (inactive),,> 100 µM (inactive),> 100 µM (inactive),> 100 µM (inactive),> 100 µM (inactive)
NNC(=O)CSc1nc2ccc(I)cc2c(=O)n1Cc1ccccc1,13.1 µM (inactive),,31.5 µM (inactive),19 µM (inactive),21.9 µM (inactive),15.6 µM (inactive),33 µM (inactive),36.6,23.2 µM (inactive),21.3 µM (inactive),21.7 µM (inactive),26.1 µM (inactive),19.5 µM (inactive),22.5 µM (inactive),24.3 µM (inactive),18.8 µM (inactive),15.9 µM (inactive),17.2 µM (inactive),14.3 µM (inactive),15.7 µM (inactive)
CC1(C)C=C(/C=C2/N(S(=O)(=O)C(F)(F)F)C(/C=C3/N(S(=O)(=O)C(F)(F)F)C(C)(C#N)CC3(C)C)=CC2(C)C)N=C1/C=C1/CC(C)(C)C(=O)N1 (stereo not given),8.45 µM (inactive),,18.8 µM (inactive),9.44 µM (inactive),14.3 µM (inactive),20.7 µM (inactive),6.93 µM (inactive),6.05,27.2 µM (inactive),22.3 µM (inactive),16.8 µM (inactive),3.11 µM (inactive),7.38 µM (inactive),6.07 µM (inactive),32.8 µM (inactive),20.8 µM (inactive),35.8 µM (inactive),13.8 µM (inactive),23.1 µM (inactive),45.7 µM (inactive)
Cc1ccc(NC(=O)c2cc(S(=O)(=O)N3CCNNC3=O)c(S)cc2Cl)cc1,> 100 µM (inactive),> 100 µM (inactive),,,> 100 µM (inactive),> 100 µM (inactive),> 100 µM (inactive),> 100,28.9 µM (inactive),> 100 µM (inactive),,56.5 µM (inactive),> 100 µM (inactive),41.8 µM (inactive),> 100 µM (inactive),> 100 µM (inactive),> 100 µM (inactive),> 100 µM (inactive),> 100 µM (inactive),
O=C(O)CC[P+](c1ccccc1)(c1ccccc1)c1ccccc1,36.8 µM (inactive),16.3 µM (inactive),23.3 µM (inactive),37.2 µM (inactive),79.6 µM (inactive),30.6 µM (inactive),> 100 µM (inactive),> 100,21.1 µM (inactive),16.9 µM (inactive),15.4 µM (inactive),11.7 µM (inactive),46.2 µM (inactive),7.94 µM (inactive),45.4 µM (inactive),,> 100 µM (inactive),14.6 µM (inactive),57.5 µM (inactive),88.5 µM (inactive)
COc1cc([C@@H]2c3cc4c(cc3[C@@H](c3c(O)cc(O)c5c3O[C@H](c3ccc(O)c(O)c3)[C@H](OC(=O)c3cc(O)c(O)c(O)c3)C5)[C@H]3COC(=O)[C@H]23)OCO4)cc(OC)c1OC,45.5 µM (inactive),,38.5 µM (inactive),11.9 µM (inactive),3.91 µM (inactive),12.6 µM (inactive),5.87 µM (inactive),18.7,> 34.4 µM (inactive),12.9 µM (inactive),17.6 µM (inactive),4.78 µM (inactive),16.6 µM (inactive),> 100 µM (inactive),11.9 µM (inactive),7.33 µM (inactive),,7.38 µM (inactive),4.52 µM (inactive),9.46 µM (inactive)
Cc1cn(CCCCCCOC(=O)NC(CCCNC(=N)N)C(=O)O)c(=O)[nH]c1=O (stereo not given),> 100 µM (inactive),,> 100 µM (inactive),> 100 µM (inactive),> 100 µM (inactive),> 100 µM (inactive),> 100 µM (inactive),> 100,> 100 µM (inactive),> 100 µM (inactive),> 100 µM (inactive),> 100 µM (inactive),> 100 µM (inactive),> 100 µM (inactive),> 100 µM (inactive),> 100 µM (inactive),> 100 µM (inactive),,> 100 µM (inactive),> 100 µM (inactive)
CCO[C@@H]1CCC([S+]([O-])c2ccc(C)cc2)=CO1 (stereo not given in full),> 100 µM (inactive),> 100 µM (inactive),> 100 µM (inactive),> 100 µM (inactive),> 100 µM (inactive),> 100 µM (inactive),> 100 µM (inactive),> 100,> 100 µM (inactive),> 100 µM (inactive),> 100 µM (inactive),> 100 µM (inactive),> 100 µM (inactive),> 100 µM (inactive),,> 100 µM (inactive),> 100 µM (inactive),> 100 µM (inactive),> 100 µM (inactive),
C#CCOC(=O)C(N)CSSCC(N)C(=O)O (stereo not given),> 100 µM (inactive),> 100 µM (inactive),> 100 µM (inactive),> 100 µM (inactive),,> 100 µM (inactive),> 100 µM (inactive),> 100,> 100 µM (inactive),> 100 µM (inactive),,,> 100 µM (inactive),> 100 µM (inactive),> 100 µM (inactive),> 100 µM (inactive),> 100 µM (inactive),> 100 µM (inactive),> 100 µM (inactive),
O=C(O)C12C3C4(C(=O)O)C1C1(C(=O)O)C2C3(C(=O)O)C41 (stereo not given),> 100 µM (inactive),> 100 µM (inactive),> 100 µM (inactive),> 100 µM (inactive),4.4 µM (inactive),> 100 µM (inactive),> 100 µM (inactive),> 100,> 100 µM (inactive),> 100 µM (inactive),> 100 µM (inactive),< 0.01 µM (active),> 100 µM (inactive),> 100 µM (inactive),> 100 µM (inactive),> 100 µM (inactive),> 100 µM (inactive),> 100 µM (inactive),> 100 µM (inactive),
COc1ccc(-c2oc3ccc(C)cc3c(=O)c2O)cc1,> 100 µM (inactive),> 100 µM (inactive),> 100 µM (inactive),> 100 µM (inactive),> 100 µM (inactive),44.3 µM (inactive),> 100 µM (inactive),24.5,> 100 µM (inactive),> 100 µM (inactive),> 100 µM (inactive),,57.7 µM (inactive),> 100 µM (inactive),> 100 µM (inactive),,> 100 µM (inactive),> 100 µM (inactive),71.4 µM (inactive),> 100 µM (inactive)
